Where a name gives a salt, the structure may show the parent alone.
What was measured:
[1] = test system: IL-17 production by CD4 T cells; assay: Human Th17 Assay (IL-17 production by CD4 T cells under Th17 differentiation conditions); type: cell-based; conditions: 3 days, IL-17 in supernatant
Protocol: The human Th17 assay tests the effect of RORγt modulatory compounds on IL-17 production by CD4 T cells under conditions which favor Th17 differentiation. Total CD4^+ T cells were isolated from the peripheral blood mononuclear cells (PBMC) of healthy donors using a CD4^+ T cell isolation kit II, following the manufacturer's instructions (Miltenyi Biotec). […] 50 µL of compound at titrated concentrations in DMSO were added into each well at final DMSO concentration at 0.2%. Cells were incubated for 1 hour, then 50 µL of Th17 cell differentiation medium was added to each well. The final concentrations of antibodies and cytokines (R&D Systems) in differentiation medium were: 3x10^6/mL anti-CD3/CD28 beads (prepared using human T cell activation/expansion kit, Miltenyi Biotec), 10 µg/mL anti-IL4, 10 µg/mL anti-IFNγ, 10 ng/mL […], 10 ng/mL IL23, 50 ng/mL IL6, 3 ng/mL TGFβ and 20 U/mL IL2. Cells were cultured at 37 °C and 5% CO2 for 3 days. Supernatants were collected and the accumulated IL-17 in culture was measured by using MULTI-SPOT® Cytokine Plate following manufacture's instruction (Meso Scale Discovery). The plate was read using Sector Imager 6000, and IL-17 concentration was extrapolated from the standard curve. The IC50s were determined by GraphPad.

[2] = biological target: T1, wild type human RORγt ligand binding domain (RORγt LBD) (Homo sapiens, UniProt P51449); assay: RORγt ThermoFluor® Assay (thermal shift, binding affinity); conditions: pH 7.0, estimated from concentration response curves
T1 construct: His-tag (N); TurboTEV protease cleavage site (ENLYFQG) (N); made in house; host or cells: E. coli (pHIS1, modified pET expression vector)
T1 sequence (P51449 269-508 limits assumed): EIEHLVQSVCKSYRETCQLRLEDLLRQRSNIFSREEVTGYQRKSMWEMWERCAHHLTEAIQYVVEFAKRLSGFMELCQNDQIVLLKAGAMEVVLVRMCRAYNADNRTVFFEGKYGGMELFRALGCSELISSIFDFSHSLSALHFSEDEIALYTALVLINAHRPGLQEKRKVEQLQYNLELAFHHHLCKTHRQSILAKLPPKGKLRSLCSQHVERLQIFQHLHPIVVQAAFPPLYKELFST
How it was run: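 Thermal shift assay on 0.065 mg/mL RORγt LBD with 60 µM 1,8-ANS in 100 mM Hepes pH 7.0, 10 mM NaCl, 2.5 mM GSH, 0.002% Tween-20. Heated at 1 °C/min, fluorescence read at 500 nm.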

[3] = biological target: T2, wild type human RORγt LBD (Homo sapiens, UniProt P51449); assay: RORγt Reporter Assay (GAL4-RORγt LBD luciferase in HEK293T cells); type: cell-based; conditions: HEK293T cells; for IC50: compounds for 24 hours, read-out: RORγt reporter Assay, IC50; for inhibition at 6 µM: HEK-293T, read-out: RORγt reporter Assay, % inhibition @ 6 µM, @ 6 µM
T2 construct: expressed in transfected cells; host or cells: HEK293T
T2 sequence (P51449 269-508 limits assumed): T1 sequence (P51449 269-508 limits assumed)
How it was run: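 HEK293T cells transiently co-transfected with GAL4-DBD–human RORγt LBD (or AF2 mutant) and GAL4-responsive firefly luciferase reporter; renilla luciferase normalised transfection and viability. Compounds applied 24 h in 5% lipid-reduced FCS; firefly/renilla ratio plotted against concentration.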

Row | SMILES | IC50 ([1]; Homo sapiens, CD4+ T, 72 h) | Kd [2] | IC50 [3] | inhibition at 6 µM [3] | IC50 [1] | RORγt reporter Assay, % inhibition @ 6 µM [3]
1 | COc1nc2ccc(C(O)(c3cncn3C)c3cnnn3C)cc2c(C#N)c1-c1cccc(C(F)(F)F)c1 (single isomer, unassigned) [Example 4b, 6-(Hydroxy(1-methyl-1H-1,2,3-triazol-5-yl)(1-methyl-1H-imidazol-5-yl)methyl)-2-methoxy-3-(3-(trifluoromethyl)phenyl)quinoline-4-carbonitrile] | 0.061 µM | 0.0044 µM | 0.0095 µM | 98% |  | 
2 | COc1nc2ccc(C(O)(c3cncn3C)c3cnnn3C)cc2c(C#N)c1-c1cccc(C(F)(F)F)c1 (single isomer, unassigned) [Example 4c, 6-(Hydroxy(1-methyl-1H-1,2,3-triazol-5-yl)(1-methyl-1H-imidazol-5-yl)methyl)-2-methoxy-3-(3-(trifluoromethyl)phenyl)quinoline-4-carbonitrile] |  | 0.0014 µM | 0.011 µM |  | 0.031 µM | 98%
3 | COc1nc2ccc(C(O)(c3ccc(C(F)(F)F)nc3)c3cncn3C)cc2c(Cl)c1-c1ccc(Cl)s1 (single isomer, unassigned) [Example 14b, [4-Chloro-3-(5-chlorothiophen-2-yl)-2-methoxyquinolin-6-yl](1-methyl-1H-imidazol-5-yl)[6-(trifluoromethyl)pyridin-3-yl]methanol] |  | 0.0052 µM | 0.24 µM |  | 0.079 µM | 53%
4 | COc1nc2ccc(C(O)(c3ccc(C(F)(F)F)nc3)c3cncn3C)cc2c(Cl)c1-c1ccc(Cl)s1 (single isomer, unassigned) [Example 14c, [4-Chloro-3-(5-chlorothiophen-2-yl)-2-methoxyquinolin-6-yl](1-methyl-1H-imidazol-5-yl)[6-(trifluoromethyl)pyridin-3-yl]methanol] |  | 0.14 µM | 0.51 µM |  | 0.31 µM | 87%
5 | COc1nc2c(C)cc(C(O)(c3ccc(C(F)(F)F)nc3)c3cncn3C)cc2c(C#N)c1-c1ccc(OC(F)(F)F)cc1 (single isomer, unassigned) [Example 19b, 6-(Hydroxy(1-methyl-1H-imidazol-5-yl)(6-(trifluoromethyl)pyridin-3-yl)methyl)-2-methoxy-8-methyl-3-(4-(trifluoromethoxy)phenyl)quinoline-4-carbonitrile] | 0.4 µM | 0.36 µM | 0.3 µM |  |  | 94%
6 | CC(=O)N1CCC(C(O)(c2ccccc2)c2cc(C)c3nc(C#N)c(-c4ccccc4)c(C#N)c3c2)CC1 (single isomer, unassigned) [Example 21c, 6-((1-Acetylpiperidin-4-yl)(hydroxy)(phenyl)methyl)-8-methyl-3-phenylquinoline-2,4-dicarbonitrile] | 0.18 µM | 0.11 µM | 0.19 µM |  |  | 96%
7 | Cc1cc(C(O)(c2ccc(Cl)cc2)c2cncn2C)cc2c(C#N)c(-c3ccccc3)c(C#N)nc12 (single isomer, unassigned) [Example 23c, 6-((4-Chlorophenyl)(hydroxy)(1-methyl-1H-imidazol-5-yl)methyl)-8-methyl-3-phenylquinoline-2,4-dicarbonitrile] | 0.4 µM | 0.15 µM | 0.23 µM |  |  | 100%
8 | Cc1cc(C(O)(c2ccc(C(F)(F)F)nc2)c2cncn2C)cc2c(C#N)c(-c3ccccc3)c(C#N)nc12 (single isomer, unassigned) [Example 25c, 6-(Hydroxy(1-methyl-1H-imidazol-5-yl)(6-(trifluoromethyl)pyridin-3-yl)methyl)-8-methyl-3-phenylquinoline-2,4-dicarbonitrile] | 0.16 µM | 0.061 µM | 0.16 µM |  |  | 95%
9 | COc1c(-c2ccccc2)c(C(F)(F)F)nc2ccc(C(O)(c3ccc(Cl)cc3)c3cncn3C)cc12 (single isomer, unassigned) [Example 33c, (4-Chlorophenyl)(4-methoxy-3-phenyl-2-(trifluoromethyl)quinolin-6-yl)(1-methyl-1H-imidazol-5-yl)methanol] | 0.29 µM | 0.077 µM | 0.13 µM |  |  | 99%
10 | CC(=O)N1CCC(C(O)(c2ccc3nc(C(F)(F)F)c(-c4ccccc4)c(Cl)c3c2)c2cncn2C)CC1 (single isomer, unassigned) [Example 34c, 1-(4-((4-Chloro-3-phenyl-2-(trifluoromethyl)quinolin-6-yl)(hydroxy)(1-methyl-1H-imidazol-5-yl)methyl)piperidin-1-yl)ethanone] | 0.26 µM | 0.1 µM | 0.27 µM |  |  | 96%
11 | COc1nc2ccc(C(O)(c3cnnn3C)c3cnc(C)n3C)cc2c(Cl)c1-c1ccccc1 (single isomer, unassigned) [Example 41b, (4-Chloro-2-methoxy-3-phenylquinolin-6-yl)(1,2-dimethyl-1H-imidazol-5-yl)(1-methyl-1H-1,2,3-triazol-5-yl)methanol] |  | 0.0014 µM | 0.0086 µM | 102% | 0.007 µM | 
12 | COc1nc2ccc(C(O)(c3cnnn3C)c3cnc(C)n3C)cc2c(Cl)c1-c1ccccc1 (single isomer, unassigned) [Example 41c, (4-Chloro-2-methoxy-3-phenylquinolin-6-yl)(1,2-dimethyl-1H-imidazol-5-yl)(1-methyl-1H-1,2,3-triazol-5-yl)methanol] |  | 0.0065 µM | 0.27 µM |  | 0.21 µM | 102%
13 | Cc1nc(C)c(C(O)(c2ccc3nc(C#N)c(-c4ccccc4)c(C#N)c3c2)c2cnnn2C)s1 (single isomer, unassigned) [Example 47c, 6-((2,4-Dimethylthiazol-5-yl)(hydroxy)(1-methyl-1H-1,2,3-triazol-5-yl)methyl)-3-phenylquinoline-2,4-dicarbonitrile] | 0.054 µM | 0.0019 µM | 0.025 µM |  |  | 100%
14 | COc1nc2ccc(C(O)(c3ccc(C(F)(F)F)nc3)c3cncn3C)cc2c(Cl)c1-c1cncnc1 (centres unmarked) [Example 10, (4-Chloro-2-methoxy-3-pyrimidin-5-ylquinolin-6-yl)(1-methyl-1H-imidazol-5-yl)[6-(trifluoromethyl)pyridin-3-yl]methanol•TFA] | 1.5 µM | 0.2 µM | 0.32 µM | 89% |  | 
15 | COc1nc2ccc(C(O)(c3ccc(C(F)(F)F)nc3)c3cncn3C)cc2c(Cl)c1-c1ccc(C#N)cc1 (centres unmarked) [Example 16, 4-(4-Chloro-6-{hydroxy(1-methyl-1H-imidazol-5-yl)[6-(trifluoromethyl)pyridin-3-yl]methyl}-2-methoxyquinolin-3-yl)benzonitrile•TFA] | 0.081 µM | 0.027 µM | 0.2 µM | 86% |  | 
16 | Cn1cncc1C(O)(c1ccc2nc(C(F)(F)F)c(-c3ccccc3)c(Cl)c2c1)c1ccccn1 (centres unmarked) [Example 61, (4-Chloro-3-phenyl-2-(trifluoromethyl)quinolin-6-yl)(1-methyl-1H-imidazol-5-yl)(pyridin-2-yl)methanol•TFA] | 0.48 µM | 0.45 µM | 0.13 µM | 105% |  | 
17 | OC(c1ccccc1)(c1ccncc1)c1ccc2nc(Cl)c(-c3ccccc3Cl)c(Cl)c2c1 (centres unmarked) [Example 73, (2,4-Dichloro-3-(2-chlorophenyl)quinolin-6-yl)(phenyl)(pyridin-4-yl)methanol] | ~6 µM | 20 µM | 0.7 µM | 80% |  | 

From patent publication EP3057950B1, “PHENYL LINKED QUINOLINYL MODULATORS OF ROR-GAMMA-T” (Janssen Pharmaceutica NV, priority 2013, dated 2015)
